These results are taken from patent publication US9439980B2, “Thymidylate kinase fusions and uses thereof” (priority 2008, dated 2016).

This assay deals with Jurkat cells. Nature of the assay: HPLC determination of AZT metabolites in cells treated with 100 μM AZT. Format: cell-based, human. The settings on record: 36 hrs. The procedure:
The cells were cultured in the presence of 100 μM AZT for 36 hrs. 10^7 cells were homogenized by sonication in 100 μl of 5% (w/v) trichloroacetic acid. The supernatant is collected after homogenate had been centrifuged at 10,000×g for 15 min at 4° C. The trichloroacetic acid was removed by extraction with an equal volume of 20% tri-n-octylamine in pentane. The neutralized aqueous fraction is directly injected into HPLC. Separation of AZT and its metabolites was performed on a C18 column (Waters) with a mobile phase composed of 0.2 M phosphate buffer containing 4 mM tetrabutylammonium hydrogen sulfate (pH 7.5) and acetonitrile in the ratio of 97:3 (v/v). The mobile phase was pumped at a flow rate of 1.5 ml/min. The UV absorbance was monitored at 270 nm. Five million cell equivalents were injected and analyzed in triplicate.

As for `Cc1cn([C@H]2C[C@H](N=[N+]=[N-])[C@@H](CO)O2)c(=O)[nH]c1=O` [AZT, 3′-azido-3′-deoxythymidine], the “conversion ratio of AZT-TP to AZT-MP in non-transduced cells” value came out at 0.02.
